One experiment concerns ESCC (KYSE520) cells. Description: WST1 analysis of cisplatin combined with FAK H58 inhibitor, KYSE520. It counts as cell-based. As to the method:
ESCC (KYSE520) cells were seeded on a 96-well plate at a density of 2000 cells/well in complete medium. The next day, medium was replaced with the serum-reduced medium (5% FBS) containing 0-80 μM of cisplatin and 5 fixed doses of H5 (0 μM, 5 μM, 10 μM, 20 μM, or 40 μM). The cells were kept for 72 hrs. WST1 analysis, a MTT-like assay, was performed to assess proliferation. Log (inhibition) vs. response—variable (four parameters). Prism was utilized to find the best-fit value and to calculate a complete confidence interval.
Synergistic effects of the chemotherapy drug combined with FAK H58 inhibitor. Chemotherapies are commonly used treatments for patients with ESCC. It was sought to determine whether the inhibition of glucose-induced G1-to-S phase transition of the cell cycle coupled with the interruption of DNA synthesis by chemotherapeutic agents is synergistic. ESCC cells (KYSE70 and KYSE520) were cultured in the medium containing reduced FBS (5%), 0-80 μM of cisplatin and 5 fixed doses of H5 (0, 5, 10, 20, or 40 μM) for 72 hr. Cell proliferation was assessed using WST1, a MTT-like reagent.
To assess the synergistic effects of cisplatin coupled with the FAK H58 inhibitor derivative (H5A), ESCC cells (KYSE70 and KYSE520) were treated with 0-80 μM of cisplatin and 5 fixed doses of H5 Å for 72 hr. The H5 derivative H5 Å enhanced the inhibitory effects of cisplatin in KYSE70 from 4 to 2 μM (FIG. 7) and in KYSE520 from 27 to 24 μM (FIG. 8), respectively.
In general terms: Tetrazolium assays rely on reduction of a dye to a coloured formazan, in cell work by metabolically active cells.

The subject of another experiment is FAK^pHis58. Description: Glc-induced phosphorylation of FAK H58 in KYSE70 cells. It counts as cell-based. Particulars: KYSE70 cells stimulated by Glc in the absence of growth factors. On the procedure: (§1) A. Top ranked small molecules that bind to FAK H58 site. B. FAK^His58 inhibitors attenuate Glc-induced phosphorylation of FAK H58. In the absence of growth factors, KYSE70 cells were stimulated by Glc with or without FAK^His58 inhibitors (H5). N=3, **: p<0.001 vs vehicle+Glc. C. Dose responses of FAK^His58 inhibitors on proliferation. KYSE70 cells were incubated in serum-free medium containing Glc, BrdU and varied concentrations of FAK^His58 inhibitors (H5). BrdU coupling ELISA was performed to assess the relative levels of newly synthesized BrdU-DNA. IC^50 values were calculated.
(§2) Reproducible test: BrdU coupling ELISA, pHis-FAK assays and IP/IB were performed to confirm the FAK H58 hit inhibition of ESCC proliferation, phosphorylation of FAK on H58 and FAK-RB1 interaction (FIGS. 2-4).

A further experiment relates to NME1 (Homo sapiens). Briefly: NME1-catalyzed histidine phosphorylation of recombinant FAK (pHis-rFAK ELISA). The class given is biochemical. Particulars: purified NME1 and rFAK, 0-1 μM, 3 hr. From the text:
A. Assessment of Glc-altered NM1 phosphorylation of pHis-FAK. NME1 was pulldown with an anti-NME1 antibody from KYSE70 cells +/−Glc stimulation and added to the anti-pHis antibody (rabbit)-coated wells. The anti-FAK (mouse) was used to detect the pHis-FAK on the plate. N=3, *: p<0.05, ***: p<0.001 and ****: p<0.0001 vs No NME1 or NME1 (−Glc). B. Glc increases NME1 in xenograft lysates derived from fasting mice +/−Glc. C. H5 attenuates NME1-increased levels of pHis-rFAk. Purified NMR1 and recombinant FAK (rFAK) were incubated in the NME kinase buffer in the presence of varied concentrations (0-1 μM) of vehicle of H5 for 3 hr. The relative levels of pHis-rFAK were assessed using ELISA.
In general terms: In an ELISA, binding on a coated surface is turned into a signal by an enzyme label.

In a further experiment the target is FAK-RB1 interaction (Homo sapiens, UniProt Q05397). Description: FAK-RB1 interaction assay (rFAK/rRB1 co-IP ELISA). The class given is biochemical. The note with it: rFAK with 0-10 μM for 1 hr, then rRB1 3 hr. On the procedure: Then, rRB1 was added to mixture and kept at room temperature for 3 hr. The mixture was added to the anti-FAK antibody-coated plated. After extensive washing, the co-IPed rRB1 was detected using an anti-RB1 antibody.

The next experiment has as its system TE9. Description: WST-1 proliferation assay, TE9 cells. The note with it: Homo sapiens, TE-9; medium containing 5% FBS, 48 hr, WST-1 assay; read-out: IC^50 of H5 on ESCC cells, TE9. It counts as cell-based.
The next experiment relates to KYSE70. Briefly: WST-1 proliferation assay, KYSE70 cells. It counts as cell-based. Particulars: Homo sapiens, KYSE-70; medium containing 5% FBS, 48 hr, WST-1 assay; read-out: IC^50 of H5 on ESCC cells, KYSE70.
For a further experiment, the system named is KYSE70 cells. Briefly: BrdU coupling ELISA of Glc-induced ESCC cell proliferation. The class given is cell-based. Particulars: Homo sapiens, KYSE-70, serum-free medium containing Glc, BrdU and varied concentrations of inhibitor, read-out: IC^50 on ESCC cell proliferation. On the procedure:
as §1, §2

The test system of the next experiment is TE10 cells. Briefly: WST-1 proliferation assay, TE10 cells. The note with it: Homo sapiens, TE-10; medium containing 5% FBS, 48 hr, WST-1 assay; read-out: IC^50, TE10. The class given is cell-based.
Another experiment relates to ESCC (KYSE70) cells. Briefly: WST1 analysis of cisplatin combined with FAK H58 inhibitor, KYSE70. The class given is cell-based. Particulars: KYSE70, 72 hr. As to the method:
ESCC (KYSE70) cells were seeded on a 96-well plate at a density of 2000 cells/well in complete medium. The next day, medium was replaced with the serum-reduced medium (5% FBS) containing 0-80 μM of cisplatin and 5 fixed doses of H5 (0 μM, 5 μM, 10 μM, 20 μM, or 40 μM). The cells were kept for 72 hrs. WST1 analysis, a MTT-like assay, was performed to assess proliferation. Log (inhibition) vs. response-variable (four parameters). Prism was utilized to find the best-fit value and to calculate a complete confidence interval. […] ESCC (KYSE70) cells were seeded on a 96-well plate at a density of 2000 cells/well in complete medium. The next day, medium was replaced with the serum-reduced medium (5% FBS) containing 0-80 μM of cisplatin and 5 fixed doses of H5 (0 μM, 5 μM, 10 μM, 20 μM, or 40 μM). The cells were kept for 72 hrs. WST1 analysis, a MTT-like assay, was performed to assess proliferation. Log (inhibition) vs. response-variable (four parameters). Prism was utilized to find the best-fit value and to calculate a complete confidence interval. Synergistic effects of the chemotherapy drug combined with FAK H58 inhibitor. Chemotherapies are commonly used treatments for patients with ESCC. […] Cell proliferation was assessed using WST1, a MTT-like reagent. […]

Structures are written as SMILES. Read-outs that look alike come from different tables or passages of the source.

Chain of FAK-RB1 interaction (Q05397 whole entry): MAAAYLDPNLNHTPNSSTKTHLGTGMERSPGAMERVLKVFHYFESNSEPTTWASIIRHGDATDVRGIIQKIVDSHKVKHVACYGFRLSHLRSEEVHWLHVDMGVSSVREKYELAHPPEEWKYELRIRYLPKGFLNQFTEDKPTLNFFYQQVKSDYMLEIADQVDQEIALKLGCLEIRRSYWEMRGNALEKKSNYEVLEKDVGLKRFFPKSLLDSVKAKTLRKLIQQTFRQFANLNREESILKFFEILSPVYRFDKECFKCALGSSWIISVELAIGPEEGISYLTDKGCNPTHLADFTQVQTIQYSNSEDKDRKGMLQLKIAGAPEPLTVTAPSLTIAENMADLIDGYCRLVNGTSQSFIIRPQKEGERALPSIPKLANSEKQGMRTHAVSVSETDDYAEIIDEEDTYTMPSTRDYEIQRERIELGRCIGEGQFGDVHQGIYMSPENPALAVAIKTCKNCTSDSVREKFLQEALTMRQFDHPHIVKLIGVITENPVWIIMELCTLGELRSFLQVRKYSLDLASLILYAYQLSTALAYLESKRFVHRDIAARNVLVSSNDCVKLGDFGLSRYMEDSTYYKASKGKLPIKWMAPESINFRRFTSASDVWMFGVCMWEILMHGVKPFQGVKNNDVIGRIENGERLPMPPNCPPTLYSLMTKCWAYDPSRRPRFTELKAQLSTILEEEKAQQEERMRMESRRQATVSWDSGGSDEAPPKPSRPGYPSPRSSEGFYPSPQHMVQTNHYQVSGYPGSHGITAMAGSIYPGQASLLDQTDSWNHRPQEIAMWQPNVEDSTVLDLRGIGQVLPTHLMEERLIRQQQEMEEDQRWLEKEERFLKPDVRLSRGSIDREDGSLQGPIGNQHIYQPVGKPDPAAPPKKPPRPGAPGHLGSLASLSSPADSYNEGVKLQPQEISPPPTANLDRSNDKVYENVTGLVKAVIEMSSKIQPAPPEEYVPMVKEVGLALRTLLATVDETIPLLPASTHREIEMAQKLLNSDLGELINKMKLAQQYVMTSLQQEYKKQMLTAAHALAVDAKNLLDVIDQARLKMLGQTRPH
Chain of NME1 (Homo sapiens) (Q05397 whole entry): as above

As to `O=c1nc(-c2ccccc2)c(-c2ccccc2)n[nH]1` [H5, 5,6-diphenyl-1,2,4-triazin-3(2H)-one], in the experiment with ESCC (KYSE520) cells (KYSE520, 72 hr), the “Effect of combination with cisplatin on proliferation” value is “enhanced the effects of cisplatin”. For the same compound, the “Effect on Glc-induced FAK^pHis58” value with FAK^pHis58 is on record as “decreased Glc-induced FAK^pHis58”. Besides, the “Effect on NME1-catalyzed FAK^pHis (pHis-rFAK levels)” value with NME1 (Homo sapiens) is given as “attenuates NME1-catalyzed FAK^pHis”. In addition, the “Effect on FAK-RB1 interaction” value at FAK-RB1 interaction is on record as “prevents Glc-induced FAK-RB1 interaction”. For the same compound, the IC50 in the experiment on TE9 is 0.38 µM; in the experiment with KYSE70, 5.7 µM; with KYSE70 cells, 9 µM; in the experiment with TE10 cells, 0.088 µM.
Consider `CCOC(=O)CSc1nnc(-c2ccccc2)c(-c2ccccc2)n1` [H5B, ethyl [(5,6-diphenyl-1,2,4-triazin-3-yl)thio]acetate], for which the IC50 in the experiment with TE10 cells amounted to 0.065 µM.
Take `N.N.[Cl][Pt][Cl]` [cisplatin]: the IC50 in the experiment on ESCC (KYSE520) cells (KYSE520, 5% FBS, 72 hr, before adding H5, read-out: IC50 of cisplatin) was 31 µM; in the experiment with ESCC (KYSE520) cells (KYSE520, 5% FBS, 72 hr, fixed doses of H5 (5-40 μM), read-out: IC50 of cisplatin combined with H5), 23 µM; with ESCC (KYSE520) cells (KYSE520, 72 hr, before adding H5A, read-out: IC50 of cisplatin (inhibitory effects)), 27 µM; in the experiment with ESCC (KYSE520) cells (KYSE520, 72 hr, fixed doses of H5A, read-out: IC50 of cisplatin combined with H5A), 24 µM; in the experiment on ESCC (KYSE70) cells (before adding H5A, read-out: IC50 of cisplatin (inhibitory effects)) it was 4 µM; in the experiment on ESCC (KYSE70) cells (fixed doses of H5A, read-out: IC50 of cisplatin combined with H5A), 2 µM.

Source of the values: US20230416209A1, “COMPOUNDS AND METHODS TO TARGET GLUCOSE-STIMULATED PHOSPHOHISTIDINE SIGNALING AND ESOPHAGEAL CANCER GROWTH” (Health Research, Inc., priority 2020, published 2023).
